Test results published in patent US8703957B2 (Janssen Pharmaceutica NV, priority 2001, dated 2014).

How the values were obtained:
Type in all cases: in vivo
[1] = tested on: inflammatory cell numbers in the broncho-alveolar lavage (BAL) fluid; assay: Inflammatory cell counts in broncho-alveolar lavage (BAL) fluid of antigen-challenged sheep; settings: 1.0 mg/kg × 4 days, last dose 30 min prior to antigen challenge
[2] = tested on: inflammatory cell numbers in the broncho-alveolar lavage (BAL) fluid; assay: as above
Procedure: Baseline dose response curves to aerosol carbachol were obtained 1-3 days prior to antigen challenge. Baseline values of specific lung resistance (SRL) were obtained and the sheep were then given a specified amount (mg) of the test compound as an inhaled aerosol at a specified time before antigen challenge. Post drug measurements of SRL were obtained and the sheep were then challenged with Ascaris suum antigen. Measurements of SRL were obtained immediately after challenge, hourly from 1-6 h after challenge and on the half-hour from 6½-8 h after challenge. Measurements of SRL were obtained 24 h after challenge followed by a 24 h post-challenge with carbachol to measure airway hyperreactivity. […] Ascaris suum antigen challenge was given at the zero time point.

[3] = tested on: Ascaris suum antigen-induced asthmatic response in conscious sheep; assay: Ascaris suum antigen-induced asthmatic response in conscious sheep: specific lung resistance and airway hyperreactivity
Procedure: The efficacy of Compound 2 for the treatment of asthma was evaluated in a validated model of Ascaris suum antigen-induced asthmatic response in conscious sheep (Abraham, W. M., Pharmacology of allergen-induced early and late airway responses and antigen-induced airway hyperresponsiveness in allergic sheep, Pulmonary Pharmacology, 1989, 2, 33-40).
Baseline dose response curves to aerosol carbachol were obtained 1-3 days prior to antigen challenge. Baseline values of specific lung resistance (SRL) were obtained and the sheep were then given a specified amount (mg) of the test compound as an inhaled aerosol at a specified time before antigen challenge. Post drug measurements of SRL were obtained and the sheep were then challenged with Ascaris suum antigen. Measurements of SRL were obtained immediately after challenge, hourly from 1-6 h after challenge and on the half-hour from 6½-8 h after challenge. Measurements of SRL were obtained 24 h after challenge followed by a 24 h post-challenge with carbachol to measure airway hyperreactivity.
Compound 2 was administered as an aerosol at 0.1 mg/Kg/dose, twice-a-day (BID) for three consecutive days, followed by a dose on day 4, 0.5 h prior to antigen challenge. Ascaris suum antigen challenge was given at the zero time point.

[4] = 8 h Post Antigen, 1.0 mg/kg × 4 days, last dose 30 min prior to antigen challenge
[5] = 24 h Post Antigen, 1.0 mg/kg × 4 days, last dose 30 min prior to antigen challenge
[6] = Baseline, 1.0 mg/kg × 4 days, last dose 30 min prior to antigen challenge

SMILES: CN(C(=O)c1cc2ccccc2cc1C(=O)C(c1cccc2ccccc12)P(=O)(O)O)C1CCN(C(=O)c2ccc3ccccc3c2)CC1 (stereo not shown) [Compound 2, [2-[3-[[methyl[1-(2-naphthalenylcarbonyl)-4-piperidinyl]amino]carbonyl]-2-naphthalenyl]-1-(1-naphthalenyl)-2-oxoethyl]-phosphonic acid]
- BAL Cell Count Eosinophils ([1]; 8 h Post Antigen): 0.37 ± 0.32 × 1000/mL
- BAL Cell Count Macrophages ([1]; 8 h Post Antigen): 77.85 ± 2.36 × 1000/mL
- BAL Cell Count Eosinophils ([1]; 24 h Post Antigen): 0.04 ± 0.03 × 1000/mL
- BAL Cell Count Neutrophils ([1]; 24 h Post Antigen): 3.86 ± 0.95 × 1000/mL
- BAL Cell Count Lymphocytes ([1]; Baseline): 3.15 ± 0.79 × 1000/mL
- BAL Cell Count Lymphocytes [2, 4]: 4.16 ± 1.10 × 1000/mL
- BAL Cell Count Neutrophils [2, 4]: 3.17 ± 0.65 × 1000/mL
- BAL Cell Count Lymphocytes [2, 5]: 3.72 ± 0.77 × 1000/mL
- BAL Cell Count Macrophages [2, 5]: 75.16 ± 2.71 × 1000/mL
- BAL Cell Count Eosinophils [2, 6]: 0.00 × 1000/mL
- BAL Cell Count Macrophages [2, 6]: 69.06 ± 1.97 × 1000/mL
- BAL Cell Count Neutrophils [2, 6]: 12.66 ± 2.07 × 1000/mL
- rise in inflammatory cell numbers in the broncho-alveolar lavage (BAL) fluid ([2]; after antigen challenge, sheep, summary of Table 5): blocked
- early airway response (specific lung resistance, SRL) ([3]; 0-2 h after antigen challenge, aerosol 0.1 mg/Kg/dose BID for three days plus dose on day 4, 0.5 h prior to challenge, n=4 sheep/group, FIG. 1): dramatically reduced
- late airway response (specific lung resistance, SRL) ([3]; 6-8 h after antigen challenge, aerosol 0.1 mg/Kg/dose BID for three days plus dose on day 4, 0.5 h prior to challenge, n=4 sheep/group, FIG. 1): completely blocked
- delayed airway hyperreactivity measured using carbachol challenge (PC 400) ([3]; 24 h post antigen challenge, FIG. 2): completely blocked
